US20140045805A1, “Fragrance Compositions and Other Compositions Which Contain Naturally Occurring Substances Found in Corals” (priority 2007, published 2014)
Read-outs that look alike come from different tables or passages of the source.

How the values were obtained:
[1] = system: healthy volunteers (men and women); experiment: Local and general tolerability and safety of airborne nasal delivery; format: in vivo, human; details: 12 ng intranasal; for Adverse effects reported: during the intervention and 24 hours after
Description: The physiologic and psychological effects of pregna-5,20-dien-3β-ol were investigated in men and women. Additionally, the local and general tolerability and safety of pregna-5,20-dien-3β-ol delivered airborne to the nasal passages were also evaluated.
After completion of physiologic recordings and the modified DABS-70 (#3), all surface electrodes were removed and the subject went through an exit interview lasting 5 minutes. At this time the investigator recorded again the arterial blood pressure and also inquired the subject about his or her state of feelings, and also any possible adverse effect appearing during the study session.

[2] = system: peripheral nasal chemosensory receptors; details: cited from earlier work; for Cross adaptation / fatigue of the receptors toward androstadienone: repeated stimulation, local electrical response of human vomeronasal epithelium, Monti-Bloch et al. 1994
[3] = target: T1, human testicular 17α Hydroxylase/C17-20-Lyase (Homo sapiens, UniProt P05093); details: Li et al. 1996; Brodie et al. U.S. Pat. No. 5,994,334; cited from earlier work
T1 sequence (P05093 1-508): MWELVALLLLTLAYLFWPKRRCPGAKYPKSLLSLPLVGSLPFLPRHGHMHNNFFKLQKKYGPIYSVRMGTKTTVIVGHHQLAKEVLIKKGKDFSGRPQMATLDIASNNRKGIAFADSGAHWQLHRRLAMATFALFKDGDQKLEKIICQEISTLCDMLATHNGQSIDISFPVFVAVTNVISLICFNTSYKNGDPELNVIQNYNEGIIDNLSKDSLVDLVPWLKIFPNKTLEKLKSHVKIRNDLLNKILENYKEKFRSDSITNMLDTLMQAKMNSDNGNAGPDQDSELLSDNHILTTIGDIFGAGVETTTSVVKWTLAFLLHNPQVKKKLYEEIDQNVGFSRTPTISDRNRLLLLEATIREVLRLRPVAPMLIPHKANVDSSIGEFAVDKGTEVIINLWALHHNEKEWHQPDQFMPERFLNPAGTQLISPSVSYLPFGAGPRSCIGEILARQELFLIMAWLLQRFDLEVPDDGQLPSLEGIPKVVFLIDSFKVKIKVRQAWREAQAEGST

Structure (SMILES): C=C[C@H]1CC[C@H]2[C@@H]3CC=C4C[C@@H](O)CC[C@]4(C)[C@H]3CC[C@]12C [pregna-5,20-dien-3β-ol, Pregna-5,20-dien-3β-ol]
- Arterial blood pressure, beginning of session vs exit interview [1]: absence of significant arterial blood pressure difference
- Tolerability ([1]; airborne, all volunteers of both gender groups): well tolerated
- Adverse effects reported [1]: no adverse effects reported
- Adverse effects reported ([1]; listed as Pregna-5,20-dien-3β-ol): no reports of local or general adverse side effects
- Local nasal discomfort / clinical examination of the nasal passages ([1]; end of the recording session): did not reveal local lesions and/or inflammation
- Depolarization of the electrogram of peripheral nasal chemosensory receptors ([2]; androstadienone 27 picograms, muricin aglycone 30 picograms, adapted from Monti-Bloch et al. (1994)): robust depolarization
- Cross adaptation / fatigue of the receptors toward androstadienone ([2]; listed as Muricin aglycone): elicit cross adaptation
- Cross adaptation / fatigue of the receptors toward androstadienone ([2]; listed as muricin aglycone): produces fatigue of the receptors
- Inhibition of human testicular 17α Hydroxylase/C17-20-Lyase [3]: little activity
